Results taken from PMC4331650 (Biochimica et Biophysica Acta, 2014).
“Also recorded” adds a separate entry of the source.

Key:
WT CLC-Ka = molecular target: T1, WT CLC-Ka (Homo sapiens, UniProt P51800); test: NFA modulation of WT CLC-Ka currents, voltage clamp in Xenopus oocytes; type: cell-based
T1 sequence (P51800 1-687): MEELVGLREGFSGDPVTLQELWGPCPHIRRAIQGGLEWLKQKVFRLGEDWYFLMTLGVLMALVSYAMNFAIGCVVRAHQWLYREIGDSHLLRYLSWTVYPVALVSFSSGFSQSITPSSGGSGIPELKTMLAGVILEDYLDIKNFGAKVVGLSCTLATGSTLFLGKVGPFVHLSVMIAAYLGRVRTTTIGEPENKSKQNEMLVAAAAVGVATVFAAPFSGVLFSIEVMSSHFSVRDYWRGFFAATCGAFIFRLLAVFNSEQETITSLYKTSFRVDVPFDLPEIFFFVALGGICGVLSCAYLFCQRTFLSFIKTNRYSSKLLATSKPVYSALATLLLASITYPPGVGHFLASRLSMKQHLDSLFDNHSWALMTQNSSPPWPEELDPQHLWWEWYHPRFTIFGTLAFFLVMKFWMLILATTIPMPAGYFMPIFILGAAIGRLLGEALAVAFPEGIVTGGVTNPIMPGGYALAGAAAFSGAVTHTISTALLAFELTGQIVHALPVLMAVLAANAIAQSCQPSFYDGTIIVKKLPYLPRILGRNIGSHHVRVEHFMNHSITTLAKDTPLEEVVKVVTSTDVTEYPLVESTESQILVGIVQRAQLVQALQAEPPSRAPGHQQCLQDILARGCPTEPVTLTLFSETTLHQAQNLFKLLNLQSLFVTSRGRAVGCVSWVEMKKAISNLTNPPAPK
T1 sequence (Q8WZ55 1-320 Y98A partner): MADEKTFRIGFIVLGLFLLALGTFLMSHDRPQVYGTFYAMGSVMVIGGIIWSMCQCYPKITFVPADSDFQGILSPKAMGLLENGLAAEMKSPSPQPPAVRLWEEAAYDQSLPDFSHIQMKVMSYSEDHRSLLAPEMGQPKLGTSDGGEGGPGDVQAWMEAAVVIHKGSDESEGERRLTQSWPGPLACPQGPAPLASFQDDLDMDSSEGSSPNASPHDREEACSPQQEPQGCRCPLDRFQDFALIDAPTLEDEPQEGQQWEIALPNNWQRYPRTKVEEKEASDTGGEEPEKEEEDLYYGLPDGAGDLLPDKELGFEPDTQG

CLC-K1/barttin = molecular target: T2, CLC-K1/barttin (Rattus norvegicus, UniProt Q06393); test: NFA effect on WT CLC-K1/barttin, voltage clamp in Xenopus oocytes; type: cell-based
T2 sequence (Q06393 1-687): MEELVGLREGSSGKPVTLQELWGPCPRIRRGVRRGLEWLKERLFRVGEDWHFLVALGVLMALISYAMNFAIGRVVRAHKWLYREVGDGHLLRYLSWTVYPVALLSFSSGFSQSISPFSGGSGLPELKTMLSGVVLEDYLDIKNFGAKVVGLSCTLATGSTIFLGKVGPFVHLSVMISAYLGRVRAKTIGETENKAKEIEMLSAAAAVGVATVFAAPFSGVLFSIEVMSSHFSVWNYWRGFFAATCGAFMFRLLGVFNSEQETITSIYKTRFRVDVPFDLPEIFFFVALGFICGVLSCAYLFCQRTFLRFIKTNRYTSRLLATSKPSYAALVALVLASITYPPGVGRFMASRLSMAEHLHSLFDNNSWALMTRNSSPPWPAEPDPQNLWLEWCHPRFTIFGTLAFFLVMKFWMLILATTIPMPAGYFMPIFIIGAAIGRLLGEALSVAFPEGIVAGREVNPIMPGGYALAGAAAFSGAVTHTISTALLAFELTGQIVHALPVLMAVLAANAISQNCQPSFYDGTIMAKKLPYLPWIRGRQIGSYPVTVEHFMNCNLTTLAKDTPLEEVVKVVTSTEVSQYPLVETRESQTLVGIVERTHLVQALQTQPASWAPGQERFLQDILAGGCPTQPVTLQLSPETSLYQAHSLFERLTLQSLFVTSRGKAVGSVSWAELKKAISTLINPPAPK
T2 sequence (Q8WZ55 1-320 Y98A partner): T1 sequence (Q8WZ55 1-320 Y98A partner)

human CLC-Ks = conditions: HEK293 cells; all concentrations tested, from 0.3 to 2000 μM; cited from earlier work
rat CLC-K1 = conditions: all concentrations tested; cited from earlier work

With `O=C(O)c1cccnc1Nc1cccc(C(F)(F)F)c1` [NFA, niflumic acid] as the molecule, how does the current increase (WT CLC-Ka; 200 μM NFA, WT CLC-Ka in Xenopus oocytes) read?
Its current increase is 3 fold.

And the “effect of NFA on currents” value (WT CLC-Ka; [NFA]ext > 500 μM)?
Its value is “inhibited”.

What about the “maximal stimulation of currents” value (WT CLC-Ka; at 500 μM NFA, currents at 60 mV normalized to 0 NFA) of the same molecule?
Its value is 4 fold.

What about the “effect of NFA on currents” value (WT CLC-Ka; very low [NFA]ext) of the same molecule?
Its value is “not changed”.

And the “currents relative to control conditions” value (CLC-K1/barttin; 10 μM NFA)?
The value was “about 80%”.

What about the “currents relative to control conditions” value (CLC-K1/barttin; 200 μM NFA) of the same molecule?
The value was ~45%.

And the “effect of NFA on currents” value (human CLC-Ks)?
The value was “inhibited; also recorded: no longer potentiated”.

And the “effect on rat CLC-K1” value (rat CLC-K1)?
The value was “blocked”.
